SMILES strings stand for the structures. Counter-ions that a name gives are not always drawn.

This note sets out measurements from US20170231966A1, “INHIBITION OF IL-2 PRODUCTION” (AYUMI PHARMACEUTICAL CORPORATION, priority 2013, published 2017).

The experiment concerns transcriptional activation of IL-2. Description: IL-2 transcriptional activation Luciferase Assay (IL-2 Gene Promoter Reporter Vector) in A23187-stimulated Jurkat cells. In kind it is cell-based, human. To be noted: for Action on A23187-accelerated transcriptional activation of IL-2 (in words) / Inhibition ratio (transcriptional activation of IL-2), Table 2 / Inhibiting ratio of IL-2 transcriptional activation: A23187-stimulated Jurkat cells; for Luc activity value, No stimulation / Luc activity value, Stimulated by A23187: Jurkat cells, 24 hours, average ± standard deviation, n=3; for Luc activity value, No stimulation: no A23187, DMSO = 1; for Luc activity value, Stimulated by A23187: A23187 0.3 μM, unstimulated DMSO = 1.

Regarding `COCCN(CCCOc1ccc(OC)cc1C1Sc2cc(Cl)ccc2N1C(C)=O)C(C)C` [Compound 5, (+)-3-acetyl-6-chloro-2-[2-(3-(N-isopropyl-N-(2-methoxyethyl)amino)propoxy)-5-methoxyphenyl]benzothiazoline (−)-O,O′-diacetyl-L-tartaric acid salt], the “Action on A23187-accelerated transcriptional activation of IL-2 (in words)” value (“Action” for short) was “inhibited transcriptional activation of IL-2”. Besides, under “compound 10 μM”, the “Inhibition ratio (transcriptional activation of IL-2), Table 2” value (from here on “Inhibition ratio”) came out at 72%.

Take `CN(C(=O)C(c1ccccc1)c1ccccc1)[C@H](CN1CC[C@H](O)C1)c1ccccc1` [Asimadoline, asimadoline, reference compound]: under “compound 10 μM”, the “Inhibition ratio” value is recorded as 19%.

As to `COc1ccc(OCCCN(CCO)C(C)C)c(C2Sc3cc(Cl)ccc3N2C(C)=O)c1.Cl` (single isomer, unassigned; (+)) [Compound 4, (+)-3-acetyl-6-chloro-2-[2-(3-(N-(2-hydroxyethyl)-N-isopropylamino)propoxy)-5-methoxyphenyl]benzothiazoline hydrochloride], the “Action” value is given as “inhibited transcriptional activation of IL-2”. Moreover, the “Inhibition ratio” value (compound 10 μM) is reported as 38%.

Take `CCOCCN(CCCOc1ccc(OC)cc1C1Sc2cc(Cl)ccc2N1C(C)=O)C(C)C` (single isomer, unassigned; (+)) [Compound 2, (+)-3-acetyl-6-chloro-2-[2-(3-(N-(2-ethoxyethyl)-N-isopropylamino)propoxy)-5-methoxyphenyl]benzothiazoline (+O,O′-diacetyl-L-tartaric acid salt]: the “Action” value is “statistically significant inhibiting action”. Also, where the note is “compound 0.3 μM”, the “Luc activity value, No stimulation” value came to 0.8842 ± 0.1143; the “Luc activity value, Stimulated by A23187” value was determined as 81.9510 ± 30.4537; the “Inhibiting ratio of IL-2 transcriptional activation” value (from here on “Inhibiting ratio”) was 12%. For the same molecule, under “compound 1 μM”, the “Luc activity value, No stimulation” value is given as 0.9410 ± 0.0598; the “Luc activity value, Stimulated by A23187” value was determined as 65.0761 ± 13.2402; the “Inhibiting ratio” value turned out to be 30%. Further, under “compound 10 μM”, the “Luc activity value, No stimulation” value is 0.9469 ± 0.0928; the “Luc activity value, Stimulated by A23187” value is on record as 27.5064 ± 29.2861; the “Inhibiting ratio” value is given as 70%.

As to `CCOCCN(CCCOc1ccc(OC)cc1C1Sc2cc(Cl)ccc2N1C(C)=O)C(C)C.Cl` (racemic) [Compound 3, (±)-3-acetyl-6-chloro-2-[2-(3-(N-(2-ethoxyethyl)-N-isopropylamino)propoxy)-5-methoxyphenyl]benzothiazoline hydrochloride], the “Action” value is given as “inhibited transcriptional activation of IL-2”. Further, the “Inhibition ratio” value (compound 10 μM) turned out to be 77%.
